# Where two headings read alike, the source gives them in different places.
# Legend:
# [1] = type: physicochemical; settings: 10 mg/ml, pH 6.0, 15 months
# Text: (§1) The favorable stability of the oral and parenteral solutions of this invention have been established in numerous tests. The criterion of stability being the lack of precipitation of the hydroylsis product 2-chloro-dibenz[b,f][1,4]oxazepin-11(1OH)-one. […]
# [2] = Second stability study, parenteral solution 15 mg/ml; type: physicochemical; settings: 70% propylene glycol, pH 6.0
# Text: as §1
# [3] = Third stability study, parenteral solution 20 mg/ml; type: physicochemical; settings: 20 mg/ml parenteral solution
# Experimental: The favorable stability of the oral and parenteral solutions of this invention have been established in numerous tests. The criterion of stability being the lack of precipitation of the hydroylsis product 2-chloro-dibenz[b,f][1,4]oxazepin-11(1OH)-one. […] Three such studies follow:
# In the third test a parenteral solution of the active ingredient at a concentration of 20 mg/ml was prepared as described in the second stability study.
# [4] = Solubility and stability in water and near neutral/basic liquids; type: physicochemical
# [5] = Crystallization/solubility behaviour with and without Polysorbate 80; type: physicochemical
# [6] = Toxicity of hydrolysis product (statement)
# [7] = Stability of solutions: lack of precipitation of the hydrolysis product; type: physicochemical; settings: in the new solutions; below this concentration
# Text: as §1
compound,measurement,setting,value
"CN1CCN(C2=Nc3ccccc3Oc3ccc(Cl)cc32)CC1 [2-chloro-11-(4-methyl-1-piperazinyl)-dibenz[b,f][1,4]oxazepine]",Hydrolysis Product,[1]; 50% propylene glycol,120 µg/mL
same,Hydrolysis Product,[1]; 60% propylene glycol,110 µg/mL
same,Hydrolysis Product,[1]; 70% propylene glycol,100 µg/mL
same,Hydrolysis Product,"[2]; 42° C, 1 Month",124 µg/mL
same,Potency,"[2]; 42° C, 1 Month",16.0 mg/mL
same,Hydrolysis Product,"[2]; 42° C, 2 Months",192 µg/mL
same,Potency,"[2]; 42° C, 2 Months",14.5 mg/mL
same,Hydrolysis Product,"[2]; 42° C, 4 Months",340 µg/mL
same,Potency,"[2]; 42° C, 4 Months",15.5 mg/mL
same,Hydrolysis Product,"[2]; 56° C, 1 Month",320 µg/mL
same,Potency,"[2]; 56° C, 1 Month",16.0 mg/mL
same,Hydrolysis Product,"[2]; 56° C, 2 Months",580 µg/mL
same,Potency,"[2]; 56° C, 2 Months",14.5 mg/mL
same,Hydrolysis Product,"[2]; 56° C, 2 Weeks",163 µg/mL
same,Potency,"[2]; 56° C, 2 Weeks",15.3 mg/mL
same,Hydrolysis Product,"[2]; 70° C, 1 Week",370 µg/mL
same,Physical Appearance,"[2]; 70° C, 1 Week",Precipitate
same,Potency,"[2]; 70° C, 1 Week",15.0 mg/mL
same,Hydrolysis Product,"[2]; 70° C, 2 Weeks",467 µg/mL
same,Potency,"[2]; 70° C, 2 Weeks",14.8 mg/mL
same,Hydrolysis Product,[2]; Fresh,26 µg/mL
same,Physical Appearance,[2]; Fresh,Clear
same,Potency,[2]; Fresh,16.0 mg/mL
same,Hydrolysis Product,"[2]; Room Temp., 2 Months",55 µg/mL
same,Potency,"[2]; Room Temp., 2 Months",15.4 mg/mL
same,Hydrolysis Product,"[2]; Room Temp., 4 Months",67 µg/mL
same,Potency,"[2]; Room Temp., 4 Months",15.6 mg/mL
same,Hydrolysis Product,"[2]; Room Temp., 6 Months",94 µg/mL
same,Potency,"[2]; Room Temp., 6 Months",15.6 mg/mL
same,Hydrolysis Product,"[2]; Room Temp., 11 Months",142 µg/mL
same,Potency,"[2]; Room Temp., 11 Months",15.4 mg/mL
same,Hydrolysis Product,"[2]; Room Temp., 13 Months",144 µg/mL
same,Potency,"[2]; Room Temp., 13 Months",15.1 mg/mL
same,Hydrolysis Product,"[2]; Room Temp., 18 Months",260 µg/mL
same,Potency,"[2]; Room Temp., 18 Months",14.3 mg/mL
same,Hydrolysis Product,"[3]; 42° C, 1 Month",146 µg/mL
same,Potency,"[3]; 42° C, 1 Month",21.8 mg/mL
same,Hydrolysis Product,"[3]; 42° C, 2 Months",232 µg/mL
same,Potency,"[3]; 42° C, 2 Months",20.5 mg/mL
same,Hydrolysis Product,"[3]; 42° C, 4 Months",436 µg/mL
same,Potency,"[3]; 42° C, 4 Months",20.2 mg/mL
same,Hydrolysis Product,"[3]; 56° C, 1 Month",374 µg/mL
same,Potency,"[3]; 56° C, 1 Month",20.6 mg/mL
same,Hydrolysis Product,"[3]; 56° C, 2 Months",732 µg/mL
same,Potency,"[3]; 56° C, 2 Months",19.4 mg/mL
same,Hydrolysis Product,"[3]; 56° C, 2 Weeks",185 µg/mL
same,Potency,"[3]; 56° C, 2 Weeks",21.0 mg/mL
same,Hydrolysis Product,"[3]; 70° C, 1 Week",480 µg/mL
same,Physical Appearance,"[3]; 70° C, 1 Week",Precipitate
same,Potency,"[3]; 70° C, 1 Week",20.7 mg/mL
same,Hydrolysis Product,"[3]; 70° C, 2 Weeks",623 µg/mL
same,Potency,"[3]; 70° C, 2 Weeks",20.6 mg/mL
same,Hydrolysis Product,[3]; Fresh,33.0 µg/mL
same,Physical Appearance,[3]; Fresh,Clear
same,Potency,[3]; Fresh,21.6 mg/mL
same,Hydrolysis Product,"[3]; Room Temp., 2 Months",62.7 µg/mL
same,Potency,"[3]; Room Temp., 2 Months",21.1 mg/mL
same,Hydrolysis Product,"[3]; Room Temp., 4 Months",78 µg/mL
same,Potency,"[3]; Room Temp., 4 Months",22.3 mg/mL
same,Hydrolysis Product,"[3]; Room Temp., 6 Months",116 µg/mL
same,Potency,"[3]; Room Temp., 6 Months",20.8 mg/mL
same,Hydrolysis Product,"[3]; Room Temp., 11 Months",160 µg/mL
same,Potency,"[3]; Room Temp., 11 Months",20.7 mg/mL
same,Hydrolysis Product,"[3]; Room Temp., 13 Months",184 µg/mL
same,Potency,"[3]; Room Temp., 13 Months",20.6 mg/mL
same,Hydrolysis Product,"[3]; Room Temp., 18 Months",340 µg/mL
same,Potency,"[3]; Room Temp., 18 Months",20.5 mg/mL
same,Solubility in liquids having a basic or near neutral pH,[4]; basic or near neutral pH,low solubility
same,Solubility in water,[4],low solubility
same,Effect of Polysorbate 80 on solubility level in 70% aqueous propylene glycol,[5]; 70% aqueous propylene glycol with Polysorbate 80,raises the solubility level
same,Effect of Polysorbate 80 on crystallization during intramuscular administration,[5]; 70% aqueous propylene glycol with Polysorbate 80 (about 2% to about 10%),eliminates the crystallization
same,Crystallization when parenterally administered to body fluids,"[5]; body fluids, pH about 7.0",exhibits a tendency to crystallize
same,Crystallization from neutral or basic media,[5]; neutral or basic media,crystallizes from neutral or basic media
same,Precipitation on dilution with non-acidic foods or beverages,[5]; oral concentrate without polysorbate 80,precipitates on dilution
"O=C1Nc2ccccc2Oc2ccc(Cl)cc21 [2-chloro-dibenz[b,f][1,4]oxazepin-11(10H)-one]",Solubility in water,[4],extremely insoluable
same,Toxicity,[6],nontoxic
same,Concentration at which crystallization of hydrolysis product does not occur,[7],below 500 mcg/ml

# — patent publication US4049809A, “Solution of a oxazepine for oral or parenteral administration” (priority 1976, dated 1977)
